We go through one substance from publication PMC7934871 (JCI Insight, 2021).

The test system of data set [1] is p53 promoter. Put plainly: Luciferase reporter gene assay, p53 promoter. The format is cell-based, human. The settings on record: HCT116, 1 μM, overnight at 37°C. An excerpt: (§1) Figure 3 PS-acet.-STAT3 peptide inhibits STAT3 activity and downregulates the expression of STAT3 targets. (A) Downregulation of STAT3 activity and its downstream target proteins shown in human HCT116 colorectal cancer cells by Western blotting (data represent 1 of the 3 experiments, n = 3). PO-acet.-STAT3 and PS-STAT3-K685R peptides were used in parallel as controls. (B) STAT3 inhibition regulated the expression of proliferation and apoptotic genes, assessed by real-time quantitative PCR. Data present mean ± SD, n = 3 independent experiments, 1-way ANOVA; ***P < 0.005; **P < 0.01. […] For p53 promoter assay, data represent 3 replicates in 3 independent experiments (n = 9). For cell proliferation assay, data represent 3 independent experiments. SD is shown (n = 3). One-way ANOVA; ***P < 0.005; **P < 0.01.
A total of 1–2 × 10^6 HCT116 cells were seeded into each well of a 24-well plate (Cellstar) and transfected with a 13x RGC plasmid, with a Renilla luciferase construct (both plasmids provided by Bernhard Lüscher, RWTH, Aachen, Germany), using Lipofectamine 2000 (Invitrogen, Thermo Fisher Scientific), according to manufacturer’s instruction. On the following day, cells were treated with 1 μM of PO- and PS-acet.-STAT3 peptides at 37°C overnight. Luciferase activities were determined using the luciferase assay system (Promega).
Background: In a reporter assay the amount or activity of a reporter protein is the signal.

Data set [2] relates to pY705-STAT3. In words: Western blotting of p-STAT3 in HCT116 cells. The data set is classed as cell-based, human.
Description: as §1
Whole cell lysates or tissue homogenates were prepared by using RIPA lysis buffer (50 mM Tris at pH 7.4, 150 mM NaCl, 1 mM EDTA, 0.5% NP-40, 1 mM NaF, 15% glycerol, and 20 mM β-glycerophosphate). A protease inhibitor cocktail (Mini Protease Inhibitor Cocktail; Roche) and a tyrosine phosphatase inhibitor, sodium orthovanadate (Na3VO4, 1 mM), were added freshly to the lysis buffer. Protein amounts were determined by BCA using a Thermo Fisher Scientific kit. Normalized protein amounts were subjected to an SDS-PAGE and transferred onto a nitrocellulose membrane for Western blotting. […] The protein levels for STAT1 (sc-346, E-23), STAT3 (sc-482, C-20), STAT5 (sc-74442, A-9), Crm1 (exportin 1) (sc-5595, H-300), CAS (exportin 2) (sc-271537, H-2), exportin 5 (sc-66885, H-300), and exportin 7 (sc-98639, H-82) were determined using antibodies from Santa Cruz Biotechnology Inc. Anti–exportin 3 (exportin T, 630622, LOS1 05-1525), anti–exportin 4 (3499-1), and anti–exportin 6 (11408-1-AP) were from MilliporeSigma, Epitomics, and Proteintech, respectively. […]
Supplemental Figure 4 (related to Figure 1). […] Phosphorylation of STAT3 at Y705 and STAT5 at Y694 was detected by Western blotting after 48 hours treatment of PS-acet.-STAT3 peptide (1 µM) or napabucasin (1 µM) in HCT116 cells. […]
(In western blotting, separated proteins are transferred to a membrane and probed.)

Data set [3] relates to CRC patient primary tumor spheres.
Description: TAMRA-acet.-STAT3 (red fluorescence) and PO-FAM-acet.-STAT3 (green fluorescence)
peptides were incubated with patient primary tumor sphere for 4 hours and the cell penetration
was visualized by confocal microscopy. Scale bar: 50 µm.
(D) The primary CRC tumor cells derived from PDX were treated with different concentrations of
PO- or PS-acet.-STAT3 peptide as indicated for 3 days. The cell viability was measured by
CellTiter Glo assay and normalized with vehicle (HBSS) treatment. Data represent 3
independent experiments (n=3). SD is shown. Unpaired Student’s t-test ****; P< 0.001; **, P<
(E) Gene expression of MYC, MMP9 and BIRC5 was detected by qPCR and normalized with
ACTB after vehicle, 1 µM of PO-or PS-acet.-STAT3 peptide treatment with CRC PDX tumor
cells. Data represent 3 independent experiments (n=3). SD is shown. One-way ANOVA. ****; P<

For “PDIPKEEAFGK685(Ac)YCRPESQEHPC-linker-T*C*C*A*T*G*A*G*C*T*T*C*C*T*G*A*T*G*C*T [PS-acet.-STAT3 peptide]”, in data set [1], the p53 promoter activity entry was “significant increase”. The “phosphorylated STAT3 (p-STAT3, Y705) level” value in data set [2] (HCT116, 1 µM, 48 hours) is recorded as “reduced”. Moreover, the “STAT3 activation (pY705-STAT3)” value in data set [2] (HCT116, approximately 1 μM) is given as “significant downregulation”. Besides, in data set [3] (3 days, CellTiter Glo, 1 µM, qPCR of MYC, MMP9, BIRC5, n = 3), the “effects on cell proliferation and gene expression of STAT3 target genes in patient primary tumor spheres” value was “significant inhibitory effects”. Further, in data set [3] (not told), the “cell permeability in patient primary tumor spheres” value was “high cell permeability”.
